Test results published in ChEMBL document CHEMBL5365467 (J Med Chem, 2023).

Tests used:
[1] = Metabolic stability in human liver microsome assessed as half life measured upto 45 mins in presence of NADPH by LC-MS/MS analysis; type: ADME; conditions: liver microsomes
[2] = Clearance in Beagle dog at 1 mg/kg, iv measured upto 24 hrs by LC-MS/MS analysis; type: ADME, organism-based, Canis lupus familiaris; conditions: in vivo
[3] = Metabolic stability in dog plasma assessed as parent compound remaining measured after 120 mins by LC-MS/MS analysis; type: ADME, cell-free, Canis lupus familiaris; conditions: read-out: Stability
[4] = Metabolic stability in mouse liver microsome assessed as half life measured upto 45 mins in presence of NADPH by LC-MS/MS analysis; type: ADME; conditions: liver microsomes
[5] = Metabolic stability in human plasma assessed as half life measured after 2 hrs by LC-MS/MS analysis; type: ADME, cell-free
[6] = Volume of distribution at steady state in Sprague-Dawley rat at 2 mg/kg, iv measured upto 24 hrs by LC-MS/MS analysis; conditions: in vivo
[7] = Toxicity in CB17-SCID mouse assessed as body weight loss at 10 to 40 mg/kg, po administered for 21 days; type: organism-based; conditions: in vivo, 504 h, dose 10-40 mg/kg, time 21 day
[8] = AUC (0 to t) in Beagle dog at 1 mg/kg, iv measured upto 24 hrs by LC-MS/MS analysis; type: ADME, organism-based, Canis lupus familiaris; set-up: dose 1 mg/kg, time < 24 hrs, route iv; conditions: in vivo
in vivo [9] = conditions: Sprague-Dawley, rat, po, 5 mg/kg
[10] = Metabolic stability in rat liver microsome assessed as half life measured upto 45 mins in presence of NADPH by LC-MS/MS analysis; type: ADME; conditions: liver microsomes
[11] = AUC (0 to t) in non human primate at 1 mg/kg, iv measured upto 24 hrs by LC-MS/MS analysis; type: ADME, organism-based; set-up: dose 1 mg/kg, time < 24 hrs, route iv; conditions: primates, in vivo
[12] = Cmax in non human primate at 2 mg/kg, po measured upto 24 hrs by LC-MS/MS analysis; type: ADME, organism-based; set-up: dose 2 mg/kg, time < 24 hrs, route po; conditions: primates, in vivo
[13] = Metabolic stability in rat plasma assessed as parent compound remaining measured after 120 mins by LC-MS/MS analysis; type: ADME, cell-free; conditions: read-out: Stability
[14] = Oral bioavailability in non human primate at 2 mg/kg measured upto 24 hrs by LC-MS/MS analysis; type: ADME, organism-based; conditions: primates, in vivo
[15] = Metabolic stability in non human primate plasma assessed as parent compound remaining measured after 120 mins by LC-MS/MS analysis; type: ADME, cell-free; conditions: primates, read-out: Stability
[16] = Tmax in ICR mouse at 5 mg/kg, po measured upto 24 hrs by LC-MS/MS analysis; type: ADME, organism-based; conditions: in vivo
[17] = Metabolic stability in non human primate hepatocyte assessed as half life measured upto 120 mins by LC-MS/MS analysis; type: ADME, cell-based; conditions: primates, hepatocytes
[18] = AUC (0 to t) in non human primate at 2 mg/kg, po measured upto 24 hrs by LC-MS/MS analysis; type: ADME, organism-based; set-up: time < 24 hrs, dose 2 mg/kg, route po; conditions: primates, in vivo
[19] = Metabolic stability in dog plasma assessed as half life measured after 2 hrs by LC-MS/MS analysis; type: ADME, cell-free, Canis lupus familiaris
[20] = Half life in Sprague-Dawley rat at 5 mg/kg, po measured upto 24 hrs by LC-MS/MS analysis; conditions: in vivo
[21] = Metabolic stability in rat liver microsome assessed as parent compound remaining measured at 120 mins in presence of NADPH by LC-MS/MS analysis; type: ADME; conditions: liver microsomes, read-out: Stability
[22] = Metabolic stability in rat hepatocyte assessed as half life measured upto 120 mins by LC-MS/MS analysis; type: ADME, cell-based; conditions: hepatocytes
[23] = Clearance in non human primate at 1 mg/kg, iv measured upto 24 hrs by LC-MS/MS analysis; type: ADME, organism-based; conditions: primates, in vivo
in vivo [24] = conditions: Sprague-Dawley, rat, po, 5 mg/kg; remark: listed apart in the source
[25] = Metabolic stability in mouse liver microsome assessed as parent compound remaining measured at 120 mins in presence of NADPH by LC-MS/MS analysis; type: ADME; conditions: liver microsomes, read-out: Stability
[26] = Metabolic stability in human plasma assessed as parent compound remaining measured after 120 mins by LC-MS/MS analysis; type: ADME, cell-free; conditions: read-out: Stability
[27] = target: Protein cereblon/Androgen receptor (Homo sapiens, UniProt P10275+Q96SW2); assay: PROTAC activity at AR/CRBN in AR-positive human VCaP cells assessed as induction of androgen receptor degradation measured at 24 hrs; type: cell-based; conditions: read-out: DC50
[28] = Metabolic stability in dog liver microsome assessed as half life measured upto 45 mins in presence of NADPH by LC-MS/MS analysis; type: ADME, Canis lupus familiaris; conditions: liver microsomes
[29] = Half life in Beagle dog at 1 mg/kg, iv measured upto 24 hrs by LC-MS/MS analysis; type: ADME, organism-based, Canis lupus familiaris; conditions: in vivo
[30] = Half life in Beagle dog at 10 mg/kg, po measured upto 24 hrs by LC-MS/MS analysis; type: ADME, organism-based, Canis lupus familiaris; conditions: in vivo
[31] = Cmax in Beagle dog at 10 mg/kg, po measured upto 24 hrs by LC-MS/MS analysis; type: ADME, organism-based, Canis lupus familiaris; set-up: time < 24 hrs, dose 10 mg/kg, route po; conditions: in vivo
[32] = Metabolic stability in human hepatocyte assessed as half life measured upto 120 mins by LC-MS/MS analysis; type: ADME, cell-based; conditions: hepatocytes
[33] = AUC (0 to t) in ICR mouse at 5 mg/kg, po measured upto 24 hrs by LC-MS/MS analysis; type: ADME, organism-based; set-up: dose 5 mg/kg, time < 24 hrs, route po; conditions: in vivo
[34] = Cmax in ICR mouse at 5 mg/kg, po measured upto 24 hrs by LC-MS/MS analysis; type: ADME, organism-based; set-up: time < 24 hrs, dose 5 mg/kg, route po; conditions: in vivo
[35] = Metabolic stability in non human primate liver microsome assessed as half life measured upto 45 mins in presence of NADPH by LC-MS/MS analysis; type: ADME; conditions: primates, liver microsomes
[36] = Metabolic stability in human liver microsome assessed as parent compound remaining measured at 120 mins in presence of NADPH by LC-MS/MS analysis; type: ADME; conditions: liver microsomes, read-out: Stability
[37] = Metabolic stability in non human primate plasma assessed as half life measured after 2 hrs by LC-MS/MS analysis; type: ADME, cell-free; conditions: primates
VCaP [38] = assay: Growth inhibition in human VCaP cells
VCaP [39] = assay: Antitumor activity against human VCaP cells xenografted in CB17-SCID mouse assessed as tumor growth inhibition at 10 mg/kg, po administered for 21 days; type: functional; conditions: 504 h, time 21 day, read-out: TGI
[40] = Half life in ICR mouse at 5 mg/kg, po measured upto 24 hrs by LC-MS/MS analysis; type: ADME, organism-based; conditions: in vivo
[41] = Oral bioavailability in ICR mouse at 5 mg/kg measured upto 24 hrs by LC-MS/MS analysis; type: ADME, organism-based; conditions: in vivo
[42] = Clearance in ICR mouse at 2 mg/kg, iv measured upto 24 hrs by LC-MS/MS analysis; type: ADME, organism-based; conditions: in vivo
[43] = Metabolic stability in non human primate liver microsome assessed as parent compound remaining measured at 120 mins in presence of NADPH by LC-MS/MS analysis; type: ADME; conditions: primates, liver microsomes, read-out: Stability
[44] = AUC (0 to t) in ICR mouse at 2 mg/kg, iv measured upto 24 hrs by LC-MS/MS analysis; type: ADME, organism-based; set-up: dose 2 mg/kg, time < 24 hrs, route iv; conditions: in vivo
[45] = Metabolic stability in mouse plasma assessed as parent compound remaining measured after 120 mins by LC-MS/MS analysis; type: ADME, cell-free; conditions: read-out: Stability
[46] = Clearance in Sprague-Dawley rat at 2 mg/kg, iv measured upto 24 hrs by LC-MS/MS analysis; conditions: in vivo
in vivo [47] = conditions: Sprague-Dawley, rat, po, 5 mg/kg; remark: listed apart in the source

Chain of Protein cereblon/Androgen receptor (P10275 whole entry): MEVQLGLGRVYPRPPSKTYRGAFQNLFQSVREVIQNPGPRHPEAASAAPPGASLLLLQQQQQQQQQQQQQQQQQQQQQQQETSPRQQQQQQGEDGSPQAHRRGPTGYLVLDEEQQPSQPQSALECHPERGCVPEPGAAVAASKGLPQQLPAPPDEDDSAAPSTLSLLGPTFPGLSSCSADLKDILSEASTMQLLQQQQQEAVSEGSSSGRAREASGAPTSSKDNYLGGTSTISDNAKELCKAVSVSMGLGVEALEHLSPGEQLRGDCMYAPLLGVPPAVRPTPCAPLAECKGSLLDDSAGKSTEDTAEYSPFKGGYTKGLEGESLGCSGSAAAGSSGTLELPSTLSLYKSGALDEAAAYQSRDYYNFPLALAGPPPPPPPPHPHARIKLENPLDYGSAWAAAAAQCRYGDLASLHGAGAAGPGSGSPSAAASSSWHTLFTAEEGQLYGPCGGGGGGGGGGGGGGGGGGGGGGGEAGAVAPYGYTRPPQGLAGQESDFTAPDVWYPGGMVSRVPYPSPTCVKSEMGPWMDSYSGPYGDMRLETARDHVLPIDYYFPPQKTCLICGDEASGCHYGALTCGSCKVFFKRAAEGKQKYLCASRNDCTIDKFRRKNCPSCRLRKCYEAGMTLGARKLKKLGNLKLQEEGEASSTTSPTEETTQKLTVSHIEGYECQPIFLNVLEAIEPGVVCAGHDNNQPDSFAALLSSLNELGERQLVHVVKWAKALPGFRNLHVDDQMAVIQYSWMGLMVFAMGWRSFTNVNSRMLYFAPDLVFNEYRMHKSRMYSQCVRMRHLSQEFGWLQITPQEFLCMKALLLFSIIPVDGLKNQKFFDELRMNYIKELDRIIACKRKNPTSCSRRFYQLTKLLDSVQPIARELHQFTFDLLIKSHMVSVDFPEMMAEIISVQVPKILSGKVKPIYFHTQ
Chain of Protein cereblon/Androgen receptor (Q96SW2 whole entry): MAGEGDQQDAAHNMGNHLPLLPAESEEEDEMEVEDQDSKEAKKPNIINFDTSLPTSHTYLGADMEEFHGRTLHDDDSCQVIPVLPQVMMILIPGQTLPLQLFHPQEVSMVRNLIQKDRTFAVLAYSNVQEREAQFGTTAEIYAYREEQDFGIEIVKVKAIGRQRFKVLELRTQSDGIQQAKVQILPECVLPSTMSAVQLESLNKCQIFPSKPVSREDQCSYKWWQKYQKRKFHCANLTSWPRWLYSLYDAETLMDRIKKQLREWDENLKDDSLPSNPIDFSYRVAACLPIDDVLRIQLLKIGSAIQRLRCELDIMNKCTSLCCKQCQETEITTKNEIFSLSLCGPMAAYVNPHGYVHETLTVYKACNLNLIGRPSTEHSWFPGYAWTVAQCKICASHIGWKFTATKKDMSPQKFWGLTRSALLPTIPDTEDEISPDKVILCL

Question: Which half-life at […] [1] does the source give for `C[C@H]1CC2(CCN(c3ccc(C(=O)N4CCC(CN5Cc6cc7c(cc6C5)C(=O)N(C5CCC(=O)NC5=O)C7=O)CC4)cc3)CC2)CN1c1ccc(C#N)c(Cl)c1` (some centres not stated) here?
Answer: The half-life at […] was > 1 h.

Question: What about the clearance [2] of the same molecule?
Answer: The clearance was 3.17 mL/min/kg.

Question: What about the remaining at 2 h [3] of the same molecule?
Answer: The remaining at 2 h was 71%.

Question: What about the half-life at […] [4] of the same molecule?
Answer: The half-life at […] was > 1 h.

Question: And the half-life [5]?
Answer: The half-life was > 2 h.

Question: What about the Vd at 24 h [6] of the same molecule?
Answer: Its Vd at 24 h is 1.7 L/kg.

Question: What about the Activity [7] of the same molecule?
Answer: The Activity was “Non-Toxic”.

Question: And the AUC(0-t) at 24 h [8]?
Answer: The AUC(0-t) at 24 h was 4860 ng·h/mL.

Question: And the Cmax at 24 h (in vivo [9])?
Answer: Its Cmax at 24 h is 871 ng/mL.

Question: What about the half-life at […] [10] of the same molecule?
Answer: The half-life at […] was > 1 h.

Question: And the AUC(0-t) at 24 h [11]?
Answer: Its AUC(0-t) at 24 h is 5170 ng·h/mL.

Question: What about the Cmax [12] of the same molecule?
Answer: The Cmax was 1520 ng/mL.

Question: And the remaining at 2 h [13]?
Answer: The remaining at 2 h was 52%.

Question: And the bioavailability [14]?
Answer: The bioavailability was 99%.

Question: And the remaining at 2 h [15]?
Answer: The remaining at 2 h was 92%.

Question: What about the Tmax [16] of the same molecule?
Answer: The Tmax was 2 h.

Question: What about the half-life [17] of the same molecule?
Answer: Its half-life is > 2 h.

Question: And the AUC(0-t) at 24 h [18]?
Answer: The AUC(0-t) at 24 h was 10300 ng·h/mL.

Question: And the half-life [19]?
Answer: The half-life was > 2 h.

Question: What about the half-life at 24 h [20] of the same molecule?
Answer: The half-life at 24 h was 5.6 h.

Question: And the remaining at 2 h [21]?
Answer: Its remaining at 2 h is 87%.

Question: And the half-life [22]?
Answer: The half-life was > 2 h.

Question: And the clearance [23]?
Answer: The clearance was 3.33 mL/min/kg.

Question: And the bioavailability at 24 h (in vivo [24])?
Answer: Its bioavailability at 24 h is 44%.

Question: And the remaining at 2 h [25]?
Answer: The remaining at 2 h was 82%.

Question: And the remaining at 2 h [26]?
Answer: The remaining at 2 h was 69%.

Question: What about the DC50 [27] of the same molecule?
Answer: The DC50 was 0.1 nM.

Question: And the half-life at […] [28]?
Answer: The half-life at […] was > 1 h.

Question: And the half-life [29]?
Answer: Its half-life is 9.9 h.

Question: And the half-life [30]?
Answer: The half-life was 27.4 h.

Question: And the Cmax [31]?
Answer: Its Cmax is 1030 ng/mL.

Question: And the half-life [32]?
Answer: Its half-life is > 2 h.

Question: What about the AUC(0-t) at 24 h [33] of the same molecule?
Answer: Its AUC(0-t) at 24 h is 85200 ng·h/mL.

Question: What about the Cmax [34] of the same molecule?
Answer: Its Cmax is 9120 ng/mL.

Question: What about the half-life at […] [35] of the same molecule?
Answer: Its half-life at […] is > 1 h.

Question: And the remaining at 2 h [36]?
Answer: The remaining at 2 h was 84%.

Question: What about the half-life [37] of the same molecule?
Answer: Its half-life is > 2 h.

Question: And the IC50 (VCaP [38])?
Answer: The IC50 was 11.5 nM.

Question: And the inhibition in vivo at 10 mg/kg (VCaP [39])?
Answer: Its inhibition in vivo at 10 mg/kg is 50%.

Question: And the half-life [40]?
Answer: The half-life was 4.4 h.

Question: What about the bioavailability [41] of the same molecule?
Answer: Its bioavailability is 67%.

Question: What about the clearance [42] of the same molecule?
Answer: The clearance was 0.667 mL/min/kg.

Question: What about the remaining at 2 h [43] of the same molecule?
Answer: The remaining at 2 h was 82%.

Question: And the AUC(0-t) at 24 h [44]?
Answer: Its AUC(0-t) at 24 h is 50500 ng·h/mL.

Question: What about the remaining at 2 h [45] of the same molecule?
Answer: The remaining at 2 h was 62%.

Question: And the clearance at 24 h [46]?
Answer: Its clearance at 24 h is 6 mL/min/kg.

Question: And the AUC(0-t) at 24 h (in vivo [47])?
Answer: The AUC(0-t) at 24 h was 6020 ng·h/mL.
